{"source": "patent EP0137900B1", "about": "“Bis-platinum complexes as antitumor agents” (priority 1983, dated 1985)", "key": {"[1]": {"system": "murine tumor line L1210 leukemia", "assay": "Antitumor screen against murine L1210 leukemia implanted in mice", "assay_type": "in vivo, CDF1 mice", "conditions": "for Percent Increase in Lifespan: start 24 hours after inoculation of 1 x 10^6 L1210 cells in CDF1 mice; for toxic dose: L1210-bearing mice"}, "[2]": {"conditions": "1% nahco3"}, "[3]": {"conditions": "in water; cited from earlier work"}, "[4]": {"assay": "Solubility (water, organic solvents, 1% NaHCO3, basic solutions)", "conditions": "result in words"}}}
{"substance": "benzenepentacarboxylatobis[(1,2-diaminocyclohexane) platinum(ll)] [Example 1]", "values": [{"measurement": "Percent Increase in Lifespan", "setting": "[1]; Dose 2.5 mg/kg, Daily x 7, intraperitoneally, in 1% NaHCO3", "result": 87, "unit": "%"}, {"measurement": "Percent Increase in Lifespan", "setting": "[1]; Dose 2.5 mg/kg, schedule 'Drugs 1, 5 and 9' [sic], intraperitoneally", "result": 21, "unit": "%"}, {"measurement": "Percent Increase in Lifespan", "setting": "[1]; Dose 5.0 mg/kg, Daily x 7, intraperitoneally, in 1% NaHCO3", "result": 117, "unit": "%"}, {"measurement": "Percent Increase in Lifespan", "setting": "[1]; Dose 5.0 mg/kg, schedule 'Drugs 1, 5 and 9' [sic], intraperitoneally", "result": 43, "unit": "%"}, {"measurement": "Percent Increase in Lifespan", "setting": "[1]; Dose 10.0 mg/kg, Daily x 7, intraperitoneally, in 1% NaHCO3", "result": 61, "unit": "%"}, {"measurement": "Percent Increase in Lifespan", "setting": "[1]; Dose 10.0 mg/kg, schedule 'Drugs 1, 5 and 9' [sic], intraperitoneally", "result": 135, "unit": "%"}, {"measurement": "Percent Increase in Lifespan", "setting": "[1]; Dose 20.0 mg/kg, schedule 'Drugs 1, 5 and 9' [sic], intraperitoneally", "result": 193, "unit": "%"}, {"measurement": "toxic dose", "setting": "[1]; daily x 7 schedule", "result": 20, "unit": "mg/kg"}, {"measurement": "toxic dose", "setting": "[1]; days 1, 5, 9 schedule", "result": 40, "unit": "mg/kg"}, {"measurement": "activity against the experimental murine tumor line L1210 leukemia", "setting": "[1]; dose range 2.5-20 mg/kg, result in words", "result": "active"}, {"measurement": "solubility", "setting": "[2]", "result": "greater than 10 mg/ml"}]}
{"substance": "cis-[Pt(NH3)2Cl2] [Cisplatin]", "values": [{"measurement": "water solubility", "setting": "[3]", "result": "about 1 mg/ml"}]}
{"substance": "5,5'-carbonylbistrimellito bis [(1,2-diaminocyclohexane)platinum(II)1 [Example 6]", "values": [{"measurement": "solubility in 1% NaHC03 solution", "setting": "[4]", "result": "dissolves readily"}]}
